Test results reported in patent US12606529B2, “Sulfur and amide tropolone inhibitors of nucleotidyl transferases and uses therefor” (Saint Louis University, priority 2019, dated 2026).
Converted amounts (≈) assume the structure as drawn.

What was measured:
human RNaseH1 = target: T1, human RNaseH1 (Homo sapiens, UniProt O60930); experiment: Biochemical inhibition of human RNaseH1 activity; conditions: Table 2 amides; read-out: HuRH1 IC50
T1 sequence (O60930 1-286): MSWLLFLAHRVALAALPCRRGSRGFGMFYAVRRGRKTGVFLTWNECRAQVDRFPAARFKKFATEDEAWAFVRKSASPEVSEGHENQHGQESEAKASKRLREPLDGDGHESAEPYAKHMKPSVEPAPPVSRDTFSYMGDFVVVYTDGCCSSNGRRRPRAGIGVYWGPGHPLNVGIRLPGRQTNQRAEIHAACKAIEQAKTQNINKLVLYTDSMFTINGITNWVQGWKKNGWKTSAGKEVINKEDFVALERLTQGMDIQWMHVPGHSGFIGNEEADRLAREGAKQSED
Experimental: Biochemical inhibition of human RNaseH1 activity. Quantitative inhibition of the human RNaseH1 in the biochemical assays was assessed using a molecular beacon assay as described previously (Edwards et al., 2017). Recombinant human RNaseH 1 (0.3 μg) was incubated with 100 nM RNA:DNA substrate, 50 mM HEPES pH 8.0, 100 mM NaCl, 2 mM Tris(2-carboxyethyl)phosphine hydrochloride (TCEP), 0.05% Tween20, 5 units of RNaseOut, test compounds (0 to 500 μM), and 5% DMSO in a 100 μL reaction volume. The substrate was formed by annealing a complementary RNA oligonucleotide to a hairpin DNA oligonucleotide to hold the hairpin DNA oligonucleotide in an open conformation. The DNA oligonucleotide has a 5′ fluorescein reporter and a 3′ black hole quencher. When the RNA is degraded from the substrate the DNA oligonucleotide closes to form a hairpin structure, decreasing in signal intensity. Reactions were initiated with 5 mM MgCl2 and fluorescence was read using a Synergy HTS multi-mode plate reader at 37° C. Alternatively, the HBV RNaseH version used was MBP-HRHgtCΔ5, a genotype C isolate which lacks the C-terminal 35 amino acids of the HBV RNaseH domain that are predicted to be unstructured. Quantitative inhibition of the human RNaseH1 in biochemical assays was assessed using a FRET-based RNaseH assay under conditions previously reported for an RNaseH molecular beacon assay (Edwards et al., 2017). […] Cleavage of the RNA strand released the fluorescein from quenching, increasing fluorescence. Reactions were monitored for 90 min at 37° C. in a plate reader and initial reaction rates were calculated. Reactions contained escalating concentrations of the compounds.

[1] = tested on: C. neoformans var. grubii, KN99; experiment: C. neoformans growth inhibition assay (limiting dilution); type: cell-based, Cryptococcus neoformans; conditions: Cryptococcus neoformans, 48 h, Table 2 amides; 48 h, 35° C., tested 0.19 to 50 μM; read-out: C. neoformans MIC80
Experimental: Cell types used for C. neoformans studies. All inhibition assays were performed with C. neoformans var. grubii, KN99 (serotype A, MAT). Two clinical strains of C. neoformans var. grubii, serotype A, were provided by Tamara Doering and Andre Spec. […] Cells were diluted to OD650 0.001 in YNB-02 02 (0.67% yeast nitrogen base, 0.2% dextrose, pH 7.0 with 50 mM MOPs)+1% DMSO prior to addition to the plates for the inhibition assays.
C. neoformans growth inhibition assays. Compounds were tested in a limiting dilution assay with a starting optical density (at 650 nm) of 0.001 in YNB-02 plus 1% DMSO. Cells plus compound were incubated in 96-well clear round bottom plates covered with a Breath-easy® membrane without shaking for 48 hours at 35° C. Before measuring cell density, plates were shaken on a microtiter plate shaker at 900 rpm for 3 minutes to resuspend cells and optical density was measured at 650 nm. […] Each assay was done in triplicate and all values are the average of two or more independent assays. The data are presented as the average cell density as a percent of DMSO-only treated cells. MICs are reported as the minimal concentration needed to inhibit 80% of C. neoformans growth relative to vehicle-treated controls.

in vitro = conditions: human, HepDES19 cells
HSV-1 = experiment: Anti-HSV-1 replication assay (Vero cells, plaque titer); type: cell-based, herpes simplex virus 1; conditions: for log reduction at 5 µM / log reduction at 1 µM: Human alphaherpesvirus 1, Vero, Table 2 amides, values separated by / are repeats; for log reduction at 5 µM: compound at 5 μM, read-out: HSV-1 suppression 5 μM; for log reduction at 1 µM: compound at 1 μM, read-out: HSV-1 suppression 1 μM

SMILES | IC50 (human RNaseH1) | MIC80 [1] | CC50 at 24 h (in vitro; CC50 (μM), Table 2 amides, MTT) | log reduction at 5 µM (HSV-1) | log reduction at 1 µM (HSV-1) | Reduction of HSV-1 titers / suppression of HSV-1 replication at 5 μM (HSV-1; 5 μM, plaque forming units (PFU)/ml) | CC50 at 24 h (in vitro; CC50)
COC(=O)[C@H](Cc1ccccc1)NC(=O)c1cc(O)c(=O)c(O)cc1C [compound 795] | 43.5 ± 14.8 µM | 9 µM (≈ 3.22 µg/mL) | 12.7 ± 5.5 µM |  |  |  | 
Cc1cc(O)c(=O)c(O)cc1C(=O)N1CCN(C(=O)N(c2ccccc2)c2ccccc2)CC1 [compound 1020] | 12.9 ± 7.3 µM | 8 µM (≈ 3.68 µg/mL) | 7.8 ± 3.7 µM |  |  |  | 
Cc1cc(O)c(=O)c(O)cc1C(=O)NCCNS(=O)(=O)c1ccc(C(F)(F)F)cc1 [compound 874] | 52.6 µM | 14 µM (≈ 6.25 µg/mL) | 17.7 ± 6.7 µM | -0.15 |  |  | 
CCS(=O)(=O)N1CCN(C(=O)c2cc(O)c(=O)c(O)cc2C)CC1 [compound 802] | 76.5 ± 46.9 µM | 50 µM (≈ 17.8 µg/mL) | 27.1 ± 31.2 µM |  |  |  | 
Cc1cc(O)c(=O)c(O)cc1C(=O)N1CCN(c2ccc(C(F)(F)F)cc2)CC1 [compound 919] |  | 2.5 µM (≈ 1.02 µg/mL) | 5.5 ± 1.9 µM |  |  |  | 
Cc1cc(O)c(=O)c(O)cc1C(=O)N1CCN(c2oc(-c3ccco3)nc2C#N)CC1 [compound 803] | 36.3 ± 4 µM | 32 µM (≈ 13.5 µg/mL) | 23.7 ± 22.9 µM |  |  |  | 
COC(=O)[C@@H](NC(=O)c1cc(O)c(=O)c(O)cc1C)C(C)C [compound 793] | 178 ± 46.6 µM | 18 µM (≈ 5.57 µg/mL) | 18.3 ± 9.8 µM |  |  |  | 
Cc1cc(O)c(=O)c(O)cc1C(=O)NCCCc1ccccc1 [compound 708] | 267 ± 11.7 µM | 18 µM (≈ 5.64 µg/mL) | 22.6 ± 12.8 µM | 0.04 |  |  | 
Cc1cc(O)c(=O)c(O)cc1C(=O)NC(CC(C)C)C(=O)OC(C)(C)C (centres unmarked) [compound 870] | 289 ± 296 µM | 5 µM (≈ 1.83 µg/mL) | 9.1 ± 2.7 µM | 0.811 |  |  | 
Cc1cc(O)c(=O)c(O)cc1C(=O)N1CCN(C(=O)c2ccc([N+](=O)[O-])c3nonc23)CC1 [compound 920] | 40.2 ± 39.7 µM | 50 µM (≈ 22.8 µg/mL) | 19.3 ± 14.6 µM |  |  |  | 
COc1ccc(C(=O)N2CCN(C(=O)c3cc(O)c(=O)c(O)cc3C)CC2)cc1 [compound 877] | 34.9 ± 7.2 µM | 14 µM (≈ 5.58 µg/mL) | 16.5 ± 1.4 µM | 0.175 | -0.232 |  | 
Cc1cc(O)c(=O)c(O)cc1C(=O)NCc1ccc(-c2ccccc2)cc1 [compound 539] | 50 ± 9 µM | 4.5 µM (≈ 1.63 µg/mL) | 3.6 ± 1.8 µM | 5.3 | 0.52 | more than 5 log10 | 1.8 µM
Cc1cc(O)c(=O)c(O)cc1C(=O)Nc1ccccc1OCc1ccccc1 [compound 835] | 725 ± 427 µM | 4.5 µM (≈ 1.7 µg/mL) | 10.3 ± 5.2 µM | 5.23 |  |  | 
Cc1cc(O)c(=O)c(O)cc1C(=O)Nc1ccccc1Cc1ccccc1 [compound 834] | 37.2 ± 17.2 µM | 9 µM (≈ 3.25 µg/mL) | 16.4 ± 11.2 µM | 1.8 |  |  | 
Cc1cc(O)c(=O)c(O)cc1C(=O)N1CCN(S(=O)(=O)c2ccsc2)CC1 [compound 917] | 30.7 ± 15.8 µM | 50 µM (≈ 20.5 µg/mL) | 8.9 ± 4.1 µM |  |  |  | 
COc1ccc(CNC(=O)c2cc(O)c(=O)c(O)cc2C)cc1 [compound 806] | 61.4 ± 15.9 µM | 4.6 µM (≈ 1.45 µg/mL) | 15.9 ± 6.9 µM |  |  |  | 
COC(=O)[C@H](CC(C)C)NC(=O)c1cc(O)c(=O)c(O)cc1C [compound 794] | 48.1 ± 15.4 µM | 9 µM (≈ 2.91 µg/mL) | 14.7 ± 9.6 µM |  |  |  | 
Cc1cc(O)c(=O)c(O)cc1C(=O)NCc1ccccc1 [compound 388] | 166 ± 104 µM | 9 µM (≈ 2.57 µg/mL) | 19.8 ± 3 µM | 0.05 |  |  | 
